Measured values taken from ChEMBL document CHEMBL1147141, “Potent nonpeptide antagonists of the bradykinin B1 receptor: structure-activity relationship studies with novel diaminochroman carboxamides” (J Med Chem, 2007).

Tests used:
[1] = target: T1, B1 bradykinin receptor (Homo sapiens, UniProt P46663); assay: Displacement of [3H]DAK from human bradykinin B1 receptor expressed in CHOD cells; format: cell-based
T1 sequence (P46663 whole entry): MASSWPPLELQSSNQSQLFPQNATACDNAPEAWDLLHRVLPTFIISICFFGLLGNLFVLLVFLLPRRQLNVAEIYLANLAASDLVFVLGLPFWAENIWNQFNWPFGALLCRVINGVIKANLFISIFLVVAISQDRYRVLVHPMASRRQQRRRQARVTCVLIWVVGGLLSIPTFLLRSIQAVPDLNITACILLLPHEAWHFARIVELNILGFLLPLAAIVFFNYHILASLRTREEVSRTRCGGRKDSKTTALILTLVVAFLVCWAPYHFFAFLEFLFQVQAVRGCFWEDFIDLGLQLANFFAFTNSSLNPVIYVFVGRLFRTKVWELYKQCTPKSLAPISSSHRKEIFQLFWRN

[2] = target: T1, B1 bradykinin receptor; assay: Antagonist activity at human bradykinin B1 receptor expressed in CHOD cells assessed as effect on DAK-induced calcium flux; format: functional, cell-based

Row | Ki [1] | IC50 [2] | Structure (SMILES)
1 | 21.8 nM (antagonist) | 69.9 nM (antagonist) | O=C(C[C@@H](NS(=O)(=O)c1ccc2ccccc2c1)c1ccccc1)N[C@@H]1CCOc2cc(CNC3CCCCC3)ccc21
2 | > 50000 nM | > 4000 nM | O=C(C[C@@H](NS(=O)(=O)c1ccc2ccccc2c1)c1ccccc1)N[C@@H]1CCOc2cc(CO)ccc21
3 | 20.6 nM (antagonist) | 127 nM (antagonist) | CC(C)(C)NCc1ccc2c(c1)OCC[C@H]2NC(=O)C[C@@H](NS(=O)(=O)c1cc(Cl)c(F)cc1F)c1ccccc1
4 | 5.7 nM (antagonist) | 14.8 nM (antagonist) | O=C(C[C@@H](NS(=O)(=O)c1ccc2ccccc2c1)c1ccccc1)N[C@@H]1CCOc2cc(CN3CCCC3)ccc21
5 | 4.8 nM (antagonist) | 9.9 nM (antagonist) | CC(C)(C)NCc1ccc2c(c1)OCC[C@H]2NC(=O)C[C@@H](NS(=O)(=O)c1cccc(C(F)(F)F)c1)c1ccc(F)cc1

The remaining lines, values behind:

Row | Structure (SMILES) | Ki [1] | IC50 [2]
6 | CC(C)(C)NCc1ccc2c(c1)OCC[C@H]2NC(=O)C[C@@H](NS(=O)(=O)c1cccc(C(F)(F)F)c1)c1ccc(C#N)cc1 | 120 nM (antagonist) | 566 nM (antagonist)
7 | C[C@@H]1CCC[C@H](C)N1Cc1ccc2c(c1)OCC[C@H]2NC(=O)C[C@@H](NS(=O)(=O)c1ccc2ccccc2c1)c1ccccc1 | 13.4 nM (antagonist) | 96.3 nM (antagonist)
8 | COCCNCc1ccc2c(c1)OCC[C@H]2NC(=O)C[C@@H](NS(=O)(=O)c1ccc(Cl)c(Cl)c1)c1ccc(F)cc1 | 6.7 nM (antagonist) | 9.4 nM (antagonist)
9 | O=C(C[C@@H](NS(=O)(=O)c1cccc(C(F)(F)F)c1)c1ccc(F)cc1)N[C@@H]1CCOc2cc(CNC3CCC3)ccc21 | 10 nM (antagonist) | 46.2 nM (antagonist)
10 | CC(C)(C)NCc1ccc2c(c1)OCC[C@H]2NC(=O)C[C@@H](NS(=O)(=O)c1cccc(C(F)(F)F)c1)c1ccccc1 | 17.9 nM (antagonist) | 78.4 nM (antagonist)
11 | CC(C)CNCc1ccc2c(c1)OCC[C@H]2NC(=O)C[C@@H](NS(=O)(=O)c1ccc2ccccc2c1)c1ccccc1 | 5 nM (antagonist) | 10.5 nM (antagonist)
12 | CC(C)(C)NCc1ccc2c(c1)OCC[C@H]2NC(=O)C[C@@H](NS(=O)(=O)c1ccc(Cl)c(Cl)c1)c1ccccc1 | 7.6 nM (antagonist) | 24.3 nM (antagonist)
13 | CC(C)NCc1ccc2c(c1)OCC[C@H]2NC(=O)C[C@@H](NS(=O)(=O)c1cccc(C(F)(F)F)c1)c1ccc(F)cc1 | 4.7 nM (antagonist) | 20.1 nM (antagonist)
14 | O=C(C[C@@H](NS(=O)(=O)c1ccc2ccccc2c1)c1ccccc1)N[C@@H]1CCOc2cc(CN3CCOCC3)ccc21 | 3.7 nM (antagonist) | 10.9 nM (antagonist)
15 | NCc1ccc2c(c1)OCC[C@H]2NC(=O)C[C@@H](NS(=O)(=O)c1ccc2ccccc2c1)c1ccccc1 | 308 nM (antagonist) | 352 nM (antagonist)
16 | CC(C)(C)NCc1ccc2c(c1)OCC[C@H]2NC(=O)C[C@@H](NS(=O)(=O)c1ccccc1Cl)c1ccccc1 | 393 nM (antagonist) | 2030 nM (antagonist)
